Test results: patent US8263606B2 (Xenon Pharmaceuticals Inc., priority 2008, dated 2012)

Experiments:
sodium channel = test: Guanidine influx assay (14C-guanidine radiotracer flux, in vitro); type: cell-based, human or rat; conditions: guanidine influx assay using a known cell line that expresses a sodium channel
Procedure, shortened: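 Test agents at half-step dilutions around 1 μM are added to plated cells in low-sodium HEPES buffer, then an aconitine/14C-guanidine mixture; after ambient-temperature incubation, cells are washed and counted. IC50 comes from a sigmoidal fit.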

CYP3A4 = CYP3A4 (Homo sapiens, UniProt P08684); test: Cytochrome P450 (CYP450) Inhibition Assay, CYP3A4 (Vivid fluorescence, BOMCC substrate); conditions: human, P450 Baculosomes (recombinant CYP3A4), probe BOMCC (Vivid substrate)
Chain of CYP3A4 (P08684 whole entry): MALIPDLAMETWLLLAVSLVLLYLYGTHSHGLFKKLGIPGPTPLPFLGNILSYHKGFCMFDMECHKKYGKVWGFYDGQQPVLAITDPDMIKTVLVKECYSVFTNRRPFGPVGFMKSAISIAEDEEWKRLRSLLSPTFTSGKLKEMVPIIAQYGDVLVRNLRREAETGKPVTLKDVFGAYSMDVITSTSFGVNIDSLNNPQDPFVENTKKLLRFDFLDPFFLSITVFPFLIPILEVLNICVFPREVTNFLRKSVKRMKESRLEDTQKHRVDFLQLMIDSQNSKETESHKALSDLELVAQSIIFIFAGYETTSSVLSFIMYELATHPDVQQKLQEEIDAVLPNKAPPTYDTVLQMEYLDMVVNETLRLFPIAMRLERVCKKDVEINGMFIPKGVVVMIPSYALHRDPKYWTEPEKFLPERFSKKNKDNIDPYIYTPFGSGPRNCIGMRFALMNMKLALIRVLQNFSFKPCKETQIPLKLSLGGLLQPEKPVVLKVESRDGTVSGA

Row | Compound | IC50 (sodium channel) [nM] | melting point | inhibition at 10 µM (CYP3A4) [%] | IC50 (sodium channel; activity level class) [nM]
1 | Cc1cccc(NC(=O)CN2C(=O)C3(COc4cc5c(cc43)CCO5)c3ccccc32)c1C (stereo not drawn) [Example 12.55, N-(2,3-dimethylphenyl)-2-(2′-oxo-5,6-dihydrospiro[benzo[1,2-b:5,4-b′]difuran-3,3′-indol]-1′(2′H)-yl)acetamide] | 1000 to 10000 | 251 to 253 °C | > 50 | 
2 | Cc1ccc(F)c(NC(=O)c2ccccc2CN2C(=O)C3(COc4cc5c(cc43)CCO5)c3ccccc32)c1 (stereo not drawn) [Example 12.20, N-(2-fluoro-5-methylphenyl)-2-[(2′-oxo-5,6-dihydrospiro[benzo[1,2-b:5,4-b′]difuran-3,3′-indol]-1′(2′H)-yl)methyl]benzamide] | 1000 to 10000 | 214 to 216 °C | > 50 | 
3 | O=C(c1ccccc1CN1C(=O)C2(COc3cc4c(cc32)CCO4)c2ccccc21)N1CCCCC1 (stereo not drawn) [Example 12.17, 1′-[2-(piperidin-1-ylcarbonyl)benzyl]-5,6-dihydrospiro[benzo[1,2-b:5,4-b′]difuran-3,3′-indol]-2′(1′H)-one] | 1000 to 10000 | 168 to 170 °C | > 50 | 
4 | NC(=O)c1cccc(CN2C(=O)C3(COc4cc5c(cc43)OCCO5)c3ccccc32)c1 (stereo not drawn) [Example 12.61, 3-[(2′-oxo-2,3-dihydrospiro[furo[2,3-g][1,4]benzodioxine-8,3′-indol]-1′(2′H)-yl)methyl]benzamide] | 100 to 1000 | 130 to 135 °C | > 50 | 
5 | COc1cc2c(cc1F)C1(CO2)C(=O)N(Cc2ccccc2)c2ccccc21 (stereo not drawn) [Example 4.67, 1′-benzyl-5-fluoro-6-methoxyspiro[1-benzofuran-3,3′-indol]-2′(1′H)-one] |  | 160 to 162 °C | < 50 | 100 to 1000
6 | O=C1N(C2CC2)c2ccccc2C12COc1cc3c(cc12)OCCO3 (stereo not drawn) [Example 21, 1′-cyclopropyl-2,3-dihydrospiro[furo[2,3-g][1,4]benzodioxine-8,3′-indol]-2′(1′H)-one] | 1 to 100 | 227 to 228 °C | < 50 | 
7 | CN1CCOc2cc3c(cc21)C1(CO3)C(=O)N(C[C@H]2CCCO2)c2ccccc21.Cl (stereo partly drawn) [Example 2.29, 1-methyl-1′-[(2R)-tetrahydrofuran-2-ylmethyl]-2,3-dihydro-1H-spiro[furo[3,2-g][1,4]benzoxazine-8,3′-indol]-2′(1′H)-one hydrochloride] |  | > 135 °C (dec.) | < 50 | 100 to 1000
8 | O=C1N(Cc2cccnc2)c2ccccc2C12COc1cc(F)c(F)cc12 (stereo not drawn) [Example 9.31, 5,6-difluoro-1′-(pyridin-3-ylmethyl)spiro[1-benzofuran-3,3′-indol]-2′(1′H)-one] |  | 175 to 177 °C | > 50 | 1000 to 10000
9 | CC(C)c1nc(CN2C(=O)C3(COc4cc5c(cc43)OCO5)c3c(Cl)cccc32)cs1 (stereo not drawn) [Example 4.91, 4′-chloro-1′-[(2-isopropyl-1,3-thiazol-4-yl)methyl]spiro[furo[2,3-f][1,3]benzodioxole-7,3′-indol]-2′(1′H)-one] |  | 147 to 148 °C | > 50 | 1 to 100
10 | O=C1N(Cc2ccc(F)cn2)c2ccccc2[C@]12COc1cc3c(cc12)OCCO3 [Example 4.107, (8S)-1′-[(5-fluoropyridin-2-yl)methyl]-2,3-dihydrospiro[furo[2,3-g][1,4]benzodioxine-8,3′-indol]-2′(1′H)-one] |  | 210 to 212 °C | < 50 | 1 to 100
11 | O=C1N(Cc2ccc(-c3noc(C(F)(F)F)n3)cc2)c2ccccc2C12COc1cc3c(cc12)CCO3 (stereo not drawn) [Example 11.13, 1′-{4-[5-(trifluoromethyl)-1,2,4-oxadiazol-3-yl]benzyl}-5,6-dihydrospiro[benzo[1,2-b:5,4-b′]difuran-3,3′-indol]-2′(1′H)-one] | 100 to 1000 | 178 to 179 °C | < 50 | 
12 | CC(C)c1nc(CN2C(=O)C3(COc4cc5c(cc43)OCO5)c3c(-c4ccc(N(C)C)nc4)cccc32)cs1 (stereo not drawn) [Example 4.92, 4′-[6-(dimethylamino)pyridin-3-yl]-1′-{[2-(1-methylethyl)-1,3-thiazol-4-yl]methyl}spiro[furo[2,3-f][1,3]benzodioxole-7,3′-indol]-2′(1′H)-one] |  | 164 to 165 °C | > 50 | 100 to 1000
13 | O=C1N(Cc2cc(=O)[nH]c(=O)[nH]2)c2ccccc2C12COc1cc3c(cc12)OCO3 (stereo not drawn) [Example 5.38, 6-[(2′-oxospiro[furo[2,3-f][1,3]benzodioxole-7,3′-indol]-1′(2′H)-yl)methyl]pyrimidine-2,4(1H,3H)-dione] |  | > 300 °C | < 50 | 1000 to 10000
14 | CN1C(=O)C2(COc3cc4c(cc32)OCCO4)c2ccccc21 (stereo not drawn) [Example 5.22, 1′-methyl-2,3-dihydrospiro[furo[2,3-g][1,4]benzodioxine-8,3′-indol]-2′(1′H)-one] |  | 152 to 154 °C | < 50 | 1 to 100
15 | COc1cc(OC)c2c(c1)N(Cc1ccccn1)C(=O)C21COc2cc3c(cc21)OCCO3 (stereo not drawn) [Example 9.74, 4′,6′-dimethoxy-1′-(pyridin-2-ylmethyl)-2,3-dihydrospiro[furo[2,3-g][1,4]benzodioxine-8,3′-indol]-2′(1′H)-one] | 100 to 1000 | 187 to 188 °C | > 50 | 
16 | CN1C(=O)COc2cc3c(cc21)OCC31C(=O)Nc2ccccc21 (stereo not drawn) [Example 3.23, 4-methyl-4,7-dihydrospiro[benzofuro[5,6-b][1,4]oxazine-8,3′-indoline]-2′,3(2H)-dione] |  | > 250 °C | < 50 | 1000 to 10000
17 | Nc1nc(C(F)(F)F)c(CN2C(=O)C3(COc4cc5c(cc43)OCO5)c3ccccc32)s1 (stereo not drawn) [Example 4.82, 1′-{[2-amino-4-(trifluoromethyl)-1,3-thiazol-5-yl]methyl}spiro[furo[2,3-f][1,3]benzodioxole-7,3′-indol]-2′(1′H)-one] |  | 165 to 167 °C | > 50 | 100 to 1000
18 | CC(C)c1nc(CN2C(=O)C3(COc4cc5c(cc43)OCO5)c3c(Cl)cccc32)no1 (stereo not drawn) [Example 11.25, 4′-chloro-1′-{[5-(1-methylethyl)-1,2,4-oxadiazol-3-yl]methyl}spiro[furo[2,3-f][1,3]benzodioxole-7,3′-indol]-2′(1′H)-one] | 1 to 100 | 165 to 167 °C | > 50 | 
19 | O=C1N(C[C@@H]2COCCO2)c2ccccc2[C@@]12COc1cc3c(cc12)OCCO3 [Example 8.5, (8R)-1′-[(2R)-1,4-dioxan-2-ylmethyl]-2,3-dihydrospiro[furo[2,3-g][1,4]benzodioxine-8,3′-indol]-2′(1′H)-one] |  | 198 to 199 °C | < 50 | 1000 to 10000
20 | CCc1ccccc1NC(=O)c1ccccc1CN1C(=O)C2(COc3cc4c(cc32)CCO4)c2ccccc21 (stereo not drawn) [Example 12.9, N-(2-ethylphenyl)-2-[(2′-oxo-5,6-dihydrospiro[benzo[1,2-b:5,4-b′]difuran-3,3′-indol]-1′(2′H)-yl)methyl]benzamide] | 1000 to 10000 | 184 to 186 °C | > 50 | 
